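The compound was tested at five concentrations on cells cultured in 96-well plates, with a 48-hour exposure period. The concentration for full growth arrest is given as TGI.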
How the values were obtained:
Assay in all cases: DTP human tumour cell line panel, 48 h
RXF 393 renal = test system: RXF 393 renal
HCT-15 colon = test system: HCT-15 colon
UACC-62 melanoma = test system: UACC-62 melanoma
OVCAR-5 ovarian = test system: OVCAR-5 ovarian
CAKI-1 renal = test system: CAKI-1 renal
SW-620 colon = test system: SW-620 colon
NCI-H522 lung = test system: NCI-H522 lung
LOX IMVI melanoma = test system: LOX IMVI melanoma
SF-295 CNS = test system: SF-295 CNS
PC-3 prostate = test system: PC-3 prostate
OVCAR-8 ovarian = test system: OVCAR-8 ovarian
HS 578T breast = test system: HS 578T breast
NCI/ADR-RES ovarian = test system: NCI/ADR-RES ovarian
SK-MEL-28 melanoma = test system: SK-MEL-28 melanoma
MOLT-4 leukemia = test system: MOLT-4 leukemia
MCF7 breast = test system: MCF7 breast
IGROV1 ovarian = test system: IGROV1 ovarian
KM12 colon = test system: KM12 colon
HOP-62 NSCLC = test system: HOP-62 NSCLC
SR leukemia = test system: SR leukemia
SNB-75 CNS = test system: SNB-75 CNS
UACC-257 melanoma = test system: UACC-257 melanoma
786-0 renal = test system: 786-0 renal
SK-MEL-5 melanoma = test system: SK-MEL-5 melanoma
HCC-2998 colon = test system: HCC-2998 colon
HL-60(TB) leukemia = test system: HL-60(TB) leukemia
HCT-116 colon = test system: HCT-116 colon
RPMI-8226 leukemia = test system: RPMI-8226 leukemia
COLO 205 colon = test system: COLO 205 colon
SK-MEL-2 melanoma = test system: SK-MEL-2 melanoma
MDA-N = test system: MDA-N
MDA-MB-231 breast = test system: MDA-MB-231 breast
UO-31 renal = test system: UO-31 renal
SF-268 CNS = test system: SF-268 CNS
EKVX NSCLC = test system: EKVX NSCLC
U251 CNS = test system: U251 CNS
TK-10 renal = test system: TK-10 renal
A549 NSCLC = test system: A549 NSCLC
DU-145 prostate = test system: DU-145 prostate
OVCAR-4 ovarian = test system: OVCAR-4 ovarian
NCI-H23 lung = test system: NCI-H23 lung
NCI-H460 lung = test system: NCI-H460 lung
HT29 colon = test system: HT29 colon
SNB-19 CNS = test system: SNB-19 CNS
MALME-3M melanoma = test system: MALME-3M melanoma
ACHN renal = test system: ACHN renal
T-47D breast = test system: T-47D breast
SN12C renal = test system: SN12C renal
A498 renal = test system: A498 renal
SK-OV-3 ovarian = test system: SK-OV-3 ovarian
HOP-92 NSCLC = test system: HOP-92 NSCLC
BT-549 breast = test system: BT-549 breast
MDA-MB-435 = test system: MDA-MB-435
CCRF-CEM leukemia = test system: CCRF-CEM leukemia
M14 melanoma = test system: M14 melanoma
NCI-H226 lung = test system: NCI-H226 lung
OVCAR-3 ovarian = test system: OVCAR-3 ovarian
K-562 leukemia = test system: K-562 leukemia
SF-539 CNS = test system: SF-539 CNS

With `COc1cc(OC)c2c(=O)cc(-c3ccccc3F)[nH]c2c1` the TGI (RXF 393 renal) was > 100 µM, the TGI (HCT-15 colon) was > 100 µM and the TGI (UACC-62 melanoma) was > 100 µM. For the same molecule, the TGI (OVCAR-5 ovarian) was > 100 µM, the TGI (CAKI-1 renal) was > 100 µM and the TGI (SW-620 colon) was > 100 µM. For the same molecule, the TGI (NCI-H522 lung) was > 100 µM, the TGI (LOX IMVI melanoma) was > 100 µM and the TGI (SF-295 CNS) was > 100 µM. For the same molecule, the TGI (PC-3 prostate) was > 100 µM, the TGI (OVCAR-8 ovarian) was > 100 µM and the TGI (HS 578T breast) was > 100 µM. For the same molecule, the TGI (NCI/ADR-RES ovarian) was > 100 µM, the TGI (SK-MEL-28 melanoma) was > 100 µM and the TGI (MOLT-4 leukemia) was > 100 µM. For the same molecule, the TGI (MCF7 breast) was > 100 µM, the TGI (IGROV1 ovarian) was > 100 µM and the TGI (KM12 colon) was > 100 µM. For the same molecule, the TGI (HOP-62 NSCLC) was > 100 µM, the TGI (SR leukemia) was > 100 µM and the TGI (SNB-75 CNS) was > 100 µM. The TGI (UACC-257 melanoma) was > 100 µM, the TGI (786-0 renal) was > 100 µM and the TGI (SK-MEL-5 melanoma) was > 100 µM. The TGI (HCC-2998 colon) was 52.3 µM, the TGI (HL-60(TB) leukemia) was > 100 µM and the TGI (HCT-116 colon) was > 100 µM. For the same molecule, the TGI (RPMI-8226 leukemia) was > 100 µM, the TGI (COLO 205 colon) was > 100 µM and the TGI (SK-MEL-2 melanoma) was > 100 µM. The TGI (MDA-N) was > 100 µM, the TGI (MDA-MB-231 breast) was > 100 µM and the TGI (UO-31 renal) was 84.5 µM. For the same molecule, the TGI (SF-268 CNS) was > 100 µM, the TGI (EKVX NSCLC) was > 100 µM and the TGI (U251 CNS) was > 100 µM. For the same molecule, the TGI (TK-10 renal) was 84.4 µM, the TGI (A549 NSCLC) was > 100 µM and the TGI (DU-145 prostate) was > 100 µM. The TGI (OVCAR-4 ovarian) was 53.3 µM, the TGI (NCI-H23 lung) was > 100 µM and the TGI (NCI-H460 lung) was > 100 µM. The TGI (HT29 colon) was > 100 µM, the TGI (SNB-19 CNS) was 73.6 µM and the TGI (MALME-3M melanoma) was > 100 µM. The TGI (ACHN renal) was > 100 µM, the TGI (T-47D breast) was > 100 µM and the TGI (SN12C renal) was > 100 µM. The TGI (A498 renal) was > 100 µM, the TGI (SK-OV-3 ovarian) was > 100 µM and the TGI (HOP-92 NSCLC) was > 100 µM. The TGI (BT-549 breast) was > 100 µM, the TGI (MDA-MB-435) was > 100 µM and the TGI (CCRF-CEM leukemia) was > 100 µM. For the same molecule, the TGI (M14 melanoma) was > 100 µM, the TGI (NCI-H226 lung) was > 100 µM and the TGI (OVCAR-3 ovarian) was > 100 µM. The TGI (K-562 leukemia) was > 100 µM.

In the case of `COC(=O)Nc1nc2cc(OC)c(OC)cc2c(=O)[nH]1`, the TGI (HCT-15 colon) is reported as > 100 µM, the TGI (UACC-62 melanoma) is reported as > 100 µM and the TGI (OVCAR-5 ovarian) is reported as > 100 µM. The TGI (CAKI-1 renal) was > 100 µM, the TGI (SW-620 colon) was > 100 µM and the TGI (NCI-H522 lung) was 6.51 µM. The TGI (SF-295 CNS) was 37 µM, the TGI (PC-3 prostate) was 71 µM and the TGI (OVCAR-8 ovarian) was > 100 µM. The TGI (HS 578T breast) was > 100 µM, the TGI (NCI/ADR-RES ovarian) was > 100 µM and the TGI (SK-MEL-28 melanoma) was > 100 µM. For the same molecule, the TGI (MOLT-4 leukemia) was > 100 µM, the TGI (MCF7 breast) was > 100 µM and the TGI (IGROV1 ovarian) was > 100 µM. The TGI (KM12 colon) was > 100 µM, the TGI (HOP-62 NSCLC) was > 100 µM and the TGI (SR leukemia) was > 100 µM. The TGI (SNB-75 CNS) was 43.6 µM, the TGI (UACC-257 melanoma) was > 100 µM and the TGI (786-0 renal) was > 100 µM. For the same molecule, the TGI (SK-MEL-5 melanoma) was > 100 µM, the TGI (HCC-2998 colon) was > 100 µM and the TGI (HL-60(TB) leukemia) was > 100 µM. For the same molecule, the TGI (HCT-116 colon) was > 100 µM, the TGI (COLO 205 colon) was > 100 µM and the TGI (SK-MEL-2 melanoma) was > 100 µM. For the same molecule, the TGI (MDA-N) was 7.99 µM, the TGI (MDA-MB-231 breast) was > 100 µM and the TGI (UO-31 renal) was > 100 µM. For the same molecule, the TGI (SF-268 CNS) was > 100 µM, the TGI (EKVX NSCLC) was > 100 µM and the TGI (U251 CNS) was > 100 µM. For the same molecule, the TGI (TK-10 renal) was > 100 µM, the TGI (A549 NSCLC) was > 100 µM and the TGI (DU-145 prostate) was > 100 µM. For the same molecule, the TGI (OVCAR-4 ovarian) was > 100 µM, the TGI (SF-539 CNS) was > 100 µM and the TGI (NCI-H23 lung) was > 100 µM. The TGI (NCI-H460 lung) was > 100 µM, the TGI (HT29 colon) was > 100 µM and the TGI (SNB-19 CNS) was > 100 µM. The TGI (MALME-3M melanoma) was > 100 µM, the TGI (ACHN renal) was > 100 µM and the TGI (T-47D breast) was > 100 µM. The TGI (SN12C renal) was > 100 µM, the TGI (A498 renal) was > 100 µM and the TGI (SK-OV-3 ovarian) was > 100 µM. For the same molecule, the TGI (BT-549 breast) was > 100 µM, the TGI (CCRF-CEM leukemia) was > 100 µM and the TGI (M14 melanoma) was > 100 µM. For the same molecule, the TGI (NCI-H226 lung) was > 100 µM, the TGI (OVCAR-3 ovarian) was > 100 µM and the TGI (K-562 leukemia) was > 100 µM.
